Tests used:
[1] = molecular target: T1, unphosphorylated c-FMS kinase (uFMS, Seq. ID no. 1) (Homo sapiens, UniProt P07333); assay: uFMS kinase assay (pyruvate kinase/lactate dehydrogenase coupled); assay type: biochemical; conditions: ATP 500 μM
T1 construct: purchased Millipore
T1 sequence (P07333 538-972): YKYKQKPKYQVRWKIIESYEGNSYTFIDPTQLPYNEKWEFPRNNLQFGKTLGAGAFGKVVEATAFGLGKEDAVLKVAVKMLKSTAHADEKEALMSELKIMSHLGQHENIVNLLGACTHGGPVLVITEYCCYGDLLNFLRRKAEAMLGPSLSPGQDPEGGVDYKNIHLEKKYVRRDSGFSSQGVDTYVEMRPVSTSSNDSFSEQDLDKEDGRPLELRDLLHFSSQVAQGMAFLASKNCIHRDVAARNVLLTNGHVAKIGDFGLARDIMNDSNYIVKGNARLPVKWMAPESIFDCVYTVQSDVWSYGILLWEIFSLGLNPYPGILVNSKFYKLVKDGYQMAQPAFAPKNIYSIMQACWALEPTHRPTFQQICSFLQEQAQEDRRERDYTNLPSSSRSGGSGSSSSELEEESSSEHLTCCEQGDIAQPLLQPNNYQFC

[2] = molecular target: T2, unphosphorylated c-KIT kinase (uKIT, Seq. ID no. 2) (Homo sapiens, UniProt P10721); assay: uKit kinase assay (pyruvate kinase/lactate dehydrogenase coupled); assay type: biochemical; conditions: ATP 2000 μM
T2 construct: uKit with N-terminal GST fusion used for
Description: In this assay, the oxidation of NADH (thus the decrease at A340 nm) was continuously monitored spectrophometrically. […] The inhibition reaction was started by mixing serial diluted test compound with the above reaction mixture. The absorption at 340 nm was monitored continuously for 4 hours at 30° C. on Synergy 2 plate reader (BioTech).

M-NFS-60 cells = assay: M-NFS-60 cell proliferation assay; assay type: cell-based; conditions: 67 h incubation, resazurin
Description: M-NFS-60 Cell Proliferation Assay A serial dilution of test compound was dispensed into a 384-well black clear bottom plate (Corning, Corning, N.Y.). Two thousand five hundred cells were added per well in 50 μL complete growth medium. […] IC50 values were calculated from a series of percent inhibition values determined at a range of inhibitor concentrations using software routines as implemented in the GraphPad Prism software package.

osteoclast precursors = assay: Osteoclast tartrate-resistant acid phosphatase assay; assay type: cell-based; conditions: Osteoclast; 7-14 days, RANKL and M-CSF
Description: Diluted compound was transferred to a 384-well black clear bottom plate. Two-thousand five hundred osteoclast precursors (Lonza, Walkersville, Md.) were added per well in growth media containing Receptor Activator of Nuclear Factor Kappa-beta ligand (RANKL) and M-CSF (R&D Systems, Minneapolis, Minn.). Plates were incubated for 7-14 days at 37 degrees Celsius, 5% CO2, and 95% humidity to allow differentiation of osteoclast precursors. […] Tartrate-resistant acid phosphatase activity in the supernatant samples was determined using an acid phosphatase assay kit (Sigma, St. Louis, Mo.). Absorbance was measured at 550 nm using a plate reader. Data was analyzed using Prism software (Graphpad, San Diego, Calif.) to calculate IC50 values.

[3] = molecular target: T3, unphosphorylated PDGFRβ kinase (uPDGFRβ, Seq. ID No. 3) (Homo sapiens, UniProt P09619); assay: Unphosphorylated PDGFRβ kinase assay (pyruvate kinase/lactate dehydrogenase coupled); assay type: biochemical; conditions: ATP 500 μM
T3 construct: purchased DeCode
From the text: Unphosyhorylated PDGFRβ (uPDGFRβkinase (Seq. ID No. 3) assay

T2 sequence (P10721 with tags, fused parts or gaps): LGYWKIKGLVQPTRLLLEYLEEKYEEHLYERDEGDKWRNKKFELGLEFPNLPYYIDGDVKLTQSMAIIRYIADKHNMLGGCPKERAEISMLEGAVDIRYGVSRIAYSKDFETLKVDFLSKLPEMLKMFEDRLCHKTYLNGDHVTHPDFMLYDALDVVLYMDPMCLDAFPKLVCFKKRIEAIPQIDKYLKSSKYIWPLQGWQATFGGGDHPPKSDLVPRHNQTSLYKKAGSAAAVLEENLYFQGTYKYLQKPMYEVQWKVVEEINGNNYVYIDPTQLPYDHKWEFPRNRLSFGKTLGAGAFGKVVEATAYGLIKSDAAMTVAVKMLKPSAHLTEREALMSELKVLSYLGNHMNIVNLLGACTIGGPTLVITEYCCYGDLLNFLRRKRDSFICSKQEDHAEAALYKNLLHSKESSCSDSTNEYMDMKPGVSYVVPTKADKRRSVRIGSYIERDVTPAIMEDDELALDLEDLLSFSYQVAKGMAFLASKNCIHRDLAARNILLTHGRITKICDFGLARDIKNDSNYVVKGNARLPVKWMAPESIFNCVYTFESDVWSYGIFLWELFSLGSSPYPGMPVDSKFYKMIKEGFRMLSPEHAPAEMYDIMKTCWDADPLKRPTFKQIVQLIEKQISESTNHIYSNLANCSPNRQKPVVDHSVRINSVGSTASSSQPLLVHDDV
T3 sequence (P09619 557-1105): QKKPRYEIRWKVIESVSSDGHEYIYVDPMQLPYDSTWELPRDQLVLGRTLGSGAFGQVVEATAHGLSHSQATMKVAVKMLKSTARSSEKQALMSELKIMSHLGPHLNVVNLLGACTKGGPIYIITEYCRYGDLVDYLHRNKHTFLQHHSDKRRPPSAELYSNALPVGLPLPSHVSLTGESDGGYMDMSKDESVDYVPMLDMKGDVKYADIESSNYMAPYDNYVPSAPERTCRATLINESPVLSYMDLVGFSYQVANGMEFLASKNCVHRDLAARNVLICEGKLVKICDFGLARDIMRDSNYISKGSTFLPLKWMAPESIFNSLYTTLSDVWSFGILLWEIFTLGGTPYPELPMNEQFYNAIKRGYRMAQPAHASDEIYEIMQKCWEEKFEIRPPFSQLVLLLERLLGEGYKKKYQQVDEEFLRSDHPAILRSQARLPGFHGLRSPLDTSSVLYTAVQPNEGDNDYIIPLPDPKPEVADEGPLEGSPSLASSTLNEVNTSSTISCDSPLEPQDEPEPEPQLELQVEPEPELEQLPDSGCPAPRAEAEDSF

| Compound | IC50 [1] | IC50 [2] | IC50 (osteoclast precursors) | IC50 [3] | IC50 (M-NFS-60 cells) |
| --- | --- | --- | --- | --- | --- |
| Cn1cnc(C(=O)Nc2cc(Oc3ccc(NC(=O)NC(=O)C(C)(C)C)nc3)ccn2)c1 [Example 59, 1-methyl-N-(4-((6-(3-pivaloylureido)pyridin-3-yl)oxy)pyridin-2-yl)-1H-imidazole-4-carboxamide] | < 10 nM | 100 to 1000 nM | < 10 nM | 100 to 1000 nM | < 10 nM |
| CC(C)(C)C(=O)NC(=O)Nc1ccc(Oc2ccnc(NC(=O)N3CCCC3)c2)cn1 [Example 78, N-(4-((6-(3-pivaloylureido)pyridin-3-yl)oxy)pyridin-2-yl)pyrrolidine-1-carboxamide] | < 10 nM | 10 to 100 nM | < 10 nM | 10 to 100 nM | < 10 nM |
| COC1(C(=O)NC(=O)Nc2ccc(Oc3ccnc(NC(=O)C4CCN(C)CC4)c3)cn2)CC1 [Example 49, N-(4-((6-(3-(1-methoxycyclopropanecarbonyl)ureido)pyridin-3-yl)oxy)pyridin-2-yl)-1-methylpiperidine-4-carboxamide] | 10 to 100 nM | > 1000 nM | 100 to 1000 nM | > 1000 nM | > 1000 nM |
| CC(C)(C)C(=O)NC(=O)Nc1ccc(Oc2ccnc(C(=O)NC3CC3)c2)cn1 [Example 74, N-cyclopropyl-4-((6-(3-pivaloylureido)pyridin-3-yl)oxy)picolinamide] | 10 to 100 nM | > 1000 nM | 10 to 100 nM | > 1000 nM | 100 to 1000 nM |
| CN(C)C1CC(C(=O)Nc2cc(Oc3ccc(NC(=O)NC(=O)C(C)(C)C)nc3)ccn2)C1 (stereo not shown) [Example 60, (1s,3s)-3-(dimethylamino)-N-(4-((6-(3-pivaloylureido)pyridin-3-yl)oxy)pyridin-2-yl)cyclobutanecarboxamide] | 10 to 100 nM | > 1000 nM | 10 to 100 nM | 100 to 1000 nM | 100 to 1000 nM |
| CC(C)(C)C(=O)NC(=O)Nc1ccc(Oc2ccnc(NC(=O)CC#N)c2)cn1 [Example 56, N-((5-((2-(2-cyanoacetamido)pyridin-4-yl)oxy)pyridin-2-yl)carbamoyl)pivalamide] | 10 to 100 nM | > 1000 nM | 100 to 1000 nM | 100 to 1000 nM | > 1000 nM |
| Cn1cc(C(=O)Nc2cc(Oc3ccc(NC(=O)NC(=O)C(C)(C)C)nc3)ccn2)cn1 [Example 52, 1-methyl-N-(4-((6-(3-pivaloylureido)pyridin-3-yl)oxy)pyridin-2-yl)-1H-pyrazole-4-carboxamide] | < 10 nM | 10 to 100 nM | < 10 nM | 100 to 1000 nM | < 10 nM |
| COC(C)(C)C(=O)NC(=O)Nc1ccc(Oc2ccnc(NC(=O)C3CCN(C)CC3)c2)cn1 [Example 40, N-(4-((6-(3-(2-methoxy-2-methylpropanoyl)ureido)pyridin-3-yl)oxy)pyridin-2-yl)-1-methylpiperidine-4-carboxamide] | 10 to 100 nM | > 1000 nM | 10 to 100 nM |  | 100 to 1000 nM |
| CN(C)CC(=O)Nc1cc(Oc2ccc(NC(=O)NC(=O)C(C)(C)C)nc2)ccn1 [Example 54, N-((5-((2-(2-(dimethylamino)acetamido)pyridin-4-yl)oxy)pyridin-2-yl)carbamoyl)pivalamide] | 10 to 100 nM | > 1000 nM | 100 to 1000 nM | > 1000 nM | 100 to 1000 nM |
| CC(C)NC(=O)c1cc(Oc2ccc(NC(=O)NC(=O)C(C)(C)C)nc2)ccn1 [Example 73, N-isopropyl-4-((6-(3-pivaloylureido)pyridin-3-yl)oxy)picolinamide] | 100 to 1000 nM | > 1000 nM | 10 to 100 nM | > 1000 nM | > 1000 nM |
| CN1CCC(NC(=O)c2cc(Oc3ccc(NC(=O)NC(=O)C(C)(C)C)nc3)ccn2)CC1 [Example 75, N-(1-methylpiperidin-4-yl)-4-((6-(3-pivaloylureido)pyridin-3-yl)oxy)picolinamide] | 100 to 1000 nM | > 1000 nM | 10 to 100 nM | > 1000 nM | > 1000 nM |
| CN1CCC(C(=O)Nc2cc(Oc3ccc(NC(=O)NC(=O)C(C)(C)C)nc3)ccn2)C1 (stereo not shown) [Example 55, 1-methyl-N-(4-((6-(3-pivaloylureido)pyridin-3-yl)oxy)pyridin-2-yl)pyrrolidine-3-carboxamide] | 10 to 100 nM | > 1000 nM | 100 to 1000 nM | > 1000 nM | > 1000 nM |

Further lines, with some results ahead:

| IC50 [1] | IC50 [2] | IC50 (osteoclast precursors) | IC50 [3] | Compound | IC50 (M-NFS-60 cells) |
| --- | --- | --- | --- | --- | --- |
| < 10 nM | 10 to 100 nM | < 10 nM |  | CC(=O)Nc1cc(Oc2ccc(NC(=O)NC(=O)CC3CCCCC3)nc2)ccn1 [Example 4, N-((5-((2-acetamidopyridin-4-yl)oxy)pyridin-2-yl)carbamoyl)-2-cyclohexylacetamide] | < 10 nM |
| < 10 nM | 100 to 1000 nM | < 10 nM | 100 to 1000 nM | CC(C)(C)C(=O)NC(=O)Nc1ccc(Oc2ccnc(NC(=O)C3CC3)c2)cn1 [Example 18, N-(4-((6-(3-pivaloylureido)pyridin-3-yl)oxy)pyridin-2-yl)cyclopropanecarboxamide] | < 10 nM |
| < 10 nM | 100 to 1000 nM | < 10 nM |  | CC(=O)Nc1cc(Oc2ccc(NC(=O)NC(=O)C3CC4CCC3O4)nc2)ccn1 (stereo not shown) [Example 28, N-((5-((2-acetamidopyridin-4-yl)oxy)pyridin-2-yl)carbamoyl)-7-oxabicyclo[2.2.1]heptane-2-carboxamide] | 10 to 100 nM |
| 10 to 100 nM | > 1000 nM | 10 to 100 nM |  | CC(=O)Nc1cc(Oc2ccc(NC(=O)NC(=O)C3CC4CCC3O4)nc2C)ccn1 (stereo not shown) [Example 29, N-((5-((2-acetamidopyridin-4-yl)oxy)-6-methylpyridin-2-yl)carbamoyl)-7-oxabicyclo[2.2.1]heptane-2-carboxamide] | 10 to 100 nM |
| 100 to 1000 nM | > 1000 nM | 100 to 1000 nM | > 1000 nM | CCC(=O)NC(=O)Nc1ccc(Oc2ccnc(NC(C)=O)c2)cn1 [Example 16, N-((5-((2-acetamidopyridin-4-yl)oxy)pyridin-2-yl)carbamoyl)propionamide] | 100 to 1000 nM |
| 10 to 100 nM | > 1000 nM | 10 to 100 nM | 10 to 100 nM | CC(=O)Nc1cc(Oc2ccc(NC(=O)NC(=O)CC3CCOCC3)nc2)ccn1 [Example 6, N-((5-((2-acetamidopyridin-4-yl)oxy)pyridin-2-yl)carbamoyl)-2-(tetrahydro-2H-pyran-4-yl)acetamide] | 100 to 1000 nM |
| 10 to 100 nM | > 1000 nM | 10 to 100 nM | 100 to 1000 nM | CC(=O)Nc1cc(Oc2ccc(NC(=O)NC(=O)C(C)C)nc2C)ccn1 [Example 10, N-((5-((2-acetamidopyridin-4-yl)oxy)-6-methylpyridin-2-yl)carbamoyl)isobutyramide] | 10 to 100 nM |
| < 10 nM | 100 to 1000 nM | 10 to 100 nM | 10 to 100 nM | CN(C)C(=O)Nc1cc(Oc2ccc(NC(=O)NC(=O)C3CCOCC3)nc2)ccn1 [Example 51, N-((5-((2-(3,3-dimethylureido)pyridin-4-yl)oxy)pyridin-2-yl)carbamoyl)tetrahydro-2H-pyran-4-carboxamide] | 10 to 100 nM |
| 10 to 100 nM | > 1000 nM | 10 to 100 nM | 10 to 100 nM | CCC(=O)Nc1cc(Oc2ccc(NC(=O)NC(=O)C3CCOCC3)nc2)ccn1 [Example 32, N-((5-((2-propionamidopyridin-4-yl)oxy)pyridin-2-yl)carbamoyl)tetrahydro-2H-pyran-4-carboxamide] | 10 to 100 nM |
| < 10 nM | 100 to 1000 nM | < 10 nM | 100 to 1000 nM | CC(=O)Nc1cc(Oc2ccc(NC(=O)NC(=O)C3(C)CCC3)nc2)ccn1 [Example 44, N-((5-((2-acetamidopyridin-4-yl)oxy)pyridin-2-yl)carbamoyl)-1-methylcyclobutanecarboxamide] | < 10 nM |
| 100 to 1000 nM | > 1000 nM | 100 to 1000 nM | > 1000 nM | CC(=O)Nc1cc(Oc2ccc(NC(=O)NC(=O)C3CCOC3)nc2C)ccn1 (stereo not shown) [Example 14, N-((5-((2-acetamidopyridin-4-yl)oxy)-6-methylpyridin-2-yl)carbamoyl)tetrahydrofuran-3-carboxamide] | 10 to 100 nM |
| 10 to 100 nM | 100 to 1000 nM | < 10 nM |  | CC(=O)Nc1cc(Oc2ccc(NC(=O)NC(=O)C3CCCCC3)nc2)ccn1 [Example 1, N-((5-((2-acetamidopyridin-4-yl)oxy)pyridin-2-yl)carbamoyl)cyclohexanecarboxamide] | < 10 nM |

Reference: US9309224B2 (Deciphera Pharmaceuticals, LLC, priority 2013, dated 2016)
